IC50 data for 2 molecules are collected here from ChEMBL document CHEMBL1156404, “Haploscleridamine, a novel tryptamine-derived alkaloid from a sponge of the order haplosclerida: an inhibitor of cathepsin K” (J Nat Prod, 2002).

For the assay, the target named is T1, Cathepsin K (Homo sapiens, UniProt P43235).
T1 sequence (P43235 whole entry): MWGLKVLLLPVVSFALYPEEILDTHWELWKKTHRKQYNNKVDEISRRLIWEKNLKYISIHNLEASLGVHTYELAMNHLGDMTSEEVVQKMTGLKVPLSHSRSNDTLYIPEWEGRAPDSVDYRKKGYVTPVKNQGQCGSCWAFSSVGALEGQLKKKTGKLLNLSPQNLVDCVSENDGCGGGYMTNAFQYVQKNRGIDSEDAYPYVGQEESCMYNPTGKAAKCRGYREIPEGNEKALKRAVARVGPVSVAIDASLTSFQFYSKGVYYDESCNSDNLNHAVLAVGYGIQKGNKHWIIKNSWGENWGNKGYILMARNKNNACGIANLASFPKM
In words: Inhibition of cathepsin K by fluorimetric assay.

Usually IC50 stands for the point on the concentration scale where inhibition reaches its midpoint. Molecule `c1ccc2c3c([nH]c2c1)C(Cc1c[nH]cn1)NCC3` (configuration not stated) [HAPLOSCLERIDAMINE] had an IC50 of 26 µM.
Molecule `NCCc1c[nH]c2ccccc12` [TRYPTAMINE] had an IC50 of 15 µM.
